Assay results reported in the NIST ThermoML archive (doi:10.1021/je049955d).

Experiments:
[1] = xn = mol fraction of the nth substance listed; details: 298.15 K, Ring tensiometer
[2] = 298.15 K, Ring tensiometer

OC1CCCC1 [cyclopentanol] + O
[1]
Details	surface tension liquid-gas [mN/m]
x1 = 0.000201	70.8
x1 = 0.000369	69.6
x1 = 0.000525	68.5
x1 = 0.000574	68
x1 = 0.000713	67.3
x1 = 0.000986	65.1
x1 = 0.001816	60.2
x1 = 0.002519	57.5
x1 = 0.002728	56.3
x1 = 0.003934	52.6
x1 = 0.005255	49.6
x1 = 0.005987	48.3
x1 = 0.008154	44.8
x1 = 0.01025	42.4
x1 = 0.01189	40.6
x1 = 0.01448	38.4

CCOCCOC(C)=O [2-ethoxyethyl ethanoate] + O
[1]
Details	surface tension liquid-gas [mN/m]
x1 = 0.000101	70
x1 = 0.000178	68.9
x1 = 0.00019	68.4
x1 = 0.000221	67.9
x1 = 0.000407	66
x1 = 0.00046	65.6
x1 = 0.000582	64.5
x1 = 0.000777	63.5
x1 = 0.000958	62.4
x1 = 0.001352	60.3
x1 = 0.003046	55.2
x1 = 0.005086	51.2
x1 = 0.007004	48.6
x1 = 0.01091	44.7
x1 = 0.013	43.2
x1 = 0.01497	41.4

CCCCO [butan-1-ol] + O
[1]
Details	surface tension liquid-gas [mN/m]
x1 = 0.000138	69.4
x1 = 0.000235	68.8
x1 = 0.000292	68.1
x1 = 0.000392	66.9
x1 = 0.000596	64.4
x1 = 0.000778	62.5
x1 = 0.001004	60.4
x1 = 0.001457	56.5
x1 = 0.001997	53.9
x1 = 0.002872	49.2
x1 = 0.003931	45.8
x1 = 0.006003	40.7
x1 = 0.006847	38.3
x1 = 0.008156	36.4
x1 = 0.01013	33.7
x1 = 0.01204	31.1
x1 = 0.01288	29.9
x1 = 0.01411	29.1

CCC#N [propanenitrile] + O
[1]
Details	surface tension liquid-gas [mN/m]
x1 = 0.000183	71.6
x1 = 0.000368	71
x1 = 0.000563	70.3
x1 = 0.000784	69.5
x1 = 0.000963	69.2
x1 = 0.001988	66.6
x1 = 0.003895	62.9
x1 = 0.005968	59.5
x1 = 0.008178	56.6
x1 = 0.01015	54.2
x1 = 0.012	52.4
x1 = 0.01434	49.9

OCCO [1,2-ethanediol]
Details	surface tension liquid-gas [mN/m]
[2]	47.8

CCCCO [butan-1-ol]
Details	surface tension liquid-gas [mN/m]
[2]	24.3

CC(=O)CC(C)=O [2,4-pentanedione] + O
[1]
Details	surface tension liquid-gas [mN/m]
x1 = 0.000205	70.7
x1 = 0.000412	70.1
x1 = 0.00049	69.9
x1 = 0.000578	69.5
x1 = 0.000783	69.1
x1 = 0.001016	68.3
x1 = 0.001976	65.5
x1 = 0.004045	61.4
x1 = 0.004973	59.8
x1 = 0.006054	58.3
x1 = 0.008089	55.6
x1 = 0.0103	53.3

COC(=O)CC(C)=O [methyl 3-oxobutanoate] + O
[1]
Details	surface tension liquid-gas [mN/m]
x1 = 0.000186	71.1
x1 = 0.000411	70.4
x1 = 0.000609	69.9
x1 = 0.000793	69.3
x1 = 0.001003	68.6
x1 = 0.001822	66.6
x1 = 0.003971	62.4
x1 = 0.005842	60.2
x1 = 0.008086	57.8
x1 = 0.00996	56.1
x1 = 0.01206	54.5
x1 = 0.01404	53.2

CCC(C)=O [butanone]
Details	surface tension liquid-gas [mN/m]
[2]	24.2

CCC#N [propanenitrile]
Details	surface tension liquid-gas [mN/m]
[2]	26.9

OCCO [1,2-ethanediol] + O
[1]
Details	surface tension liquid-gas [mN/m]
x1 = 0.008251	70.8
x1 = 0.01012	70.7
x1 = 0.01185	70.4
x1 = 0.01423	70.2
x1 = 0.01585	69.7
x1 = 0.01823	69.6
x1 = 0.02	69.4
x1 = 0.02198	69.2
x1 = 0.02488	68.8
x1 = 0.02992	68.2
x1 = 0.03542	67.7
x1 = 0.0401	67.3
x1 = 0.04519	66.6
x1 = 0.101	62.5
x1 = 0.2	57.9

O=C1CCCC1 [cyclopentanone] + O
[1]
Details	surface tension liquid-gas [mN/m]
x1 = 0.000186	71.1
x1 = 0.000367	70.3
x1 = 0.000559	69.6
x1 = 0.000768	68.9
x1 = 0.000966	68.3
x1 = 0.001362	67
x1 = 0.002445	63.6
x1 = 0.003863	61.1
x1 = 0.006022	57.8
x1 = 0.007908	55.5
x1 = 0.009964	53.7
x1 = 0.01215	52
x1 = 0.01428	50.3

CC(=O)CC(C)=O [2,4-pentanedione]
Details	surface tension liquid-gas [mN/m]
[2]	30.9

CCC(C)=O [butanone] + O
[1]
Details	surface tension liquid-gas [mN/m]
x1 = 5.71e-05	71.8
x1 = 7.54e-05	71.7
x1 = 8.96e-05	71.5
x1 = 0.000112	71.3
x1 = 0.000296	70
x1 = 0.000522	68.9
x1 = 0.000741	67.8
x1 = 0.000855	67.3
x1 = 0.000997	66.8
x1 = 0.002056	63.1
x1 = 0.00405	58.6
x1 = 0.006112	55.1
x1 = 0.008019	52.7
x1 = 0.01022	50.4
x1 = 0.01205	48.8
x1 = 0.01413	47.4

CCC(C)O (stereo unspecified) [butan-2-ol]
Details	surface tension liquid-gas [mN/m]
[2]	23.3

CCOCCOC(C)=O [2-ethoxyethyl ethanoate]
Details	surface tension liquid-gas [mN/m]
[2]	28.7

O=C1CCCC1 [cyclopentanone]
Details	surface tension liquid-gas [mN/m]
[2]	33

CCOC(C)=O [ethyl acetate] + O
[1]
Details	surface tension liquid-gas [mN/m]
x1 = 0.000189	69.6
x1 = 0.000351	67.7
x1 = 0.000617	65.2
x1 = 0.000819	63.7
x1 = 0.000997	62.3
x1 = 0.002074	57.3
x1 = 0.003938	51.2
x1 = 0.006035	46.7
x1 = 0.008035	43.4
x1 = 0.009946	40.5
x1 = 0.01195	37.8
x1 = 0.01401	35.2

OC1CCCC1 [cyclopentanol]
Details	surface tension liquid-gas [mN/m]
[2]	32.8

O [water]
Details	surface tension liquid-gas [mN/m]
[2]	71.95

COC(=O)CC(C)=O [methyl 3-oxobutanoate]
Details	surface tension liquid-gas [mN/m]
[2]	35.7

CCOC(C)=O [ethyl acetate]
Details	surface tension liquid-gas [mN/m]
[2]	23.7

CCC(C)O (stereo unspecified) [butan-2-ol] + O
[1]
Details	surface tension liquid-gas [mN/m]
x1 = 0.000154	70.2
x1 = 0.000211	69.7
x1 = 0.000443	67.3
x1 = 0.000718	64.8
x1 = 0.001	62.6
x1 = 0.001994	57.5
x1 = 0.003914	50.9
x1 = 0.005882	46.4
x1 = 0.00799	43.1
x1 = 0.009938	40.6
x1 = 0.01199	38.5
x1 = 0.01394	36.8
